# In US8013156B2 (Exelixis, Inc., priority 2003, dated 2011):
# Target: Tie-2 (Homo sapiens, UniProt Q02763)
# Test: Tie-2 tyrosine kinase activity assay (luciferase/luciferin ATP consumption with pEY substrate, or 33P-ATP incorporation)
# Type: biochemical
# Settings: human enzyme Tie-2
# Method: One measure of inhibition is Ki. […] The Ki for a compound is determined from the IC50 based on three assumptions. First, only one compound molecule binds to the enzyme and there is no cooperativity. […] Third, the enzymatic rate of the enzyme-inhibitor complex is zero. The rate data (i.e. compound concentration) are fitted to the equation:
# [formula] where V is the observed rate, Vmax, is the rate of the free enzyme, I0 is the inhibitor concentration, E0 is the enzyme concentration, and Kd is the dissociation constant of the enzyme-inhibitor complex.
# Tyrosine kinase activity is determined by 1) measurement of kinase-dependent ATP consumption by in the presence of a generic substrate such as […], tyrosine (pEY), by luciferase/luciferin-mediated chemiluminescence or; 2) incorporation of radioactive phosphate derived from ^33P-ATP into a generic substrate which has been adsorbed onto the well surface of polystyrene microtiter plates. Phosphorylated substrate products are quantified by scintillation spectrometry.
# Inhibition is indicated as IC50 with following key: A=IC50 less than 50 nM, B=IC50 greater than 50 nM, but less than or equal to 1000 nM, C=IC50 greater than 1000 nM, but less than 10,000 nM, D=IC50 10,000 nM or greater, and “-”=no data available. The abbreviation for human enzyme, Tie-2, is defined as tyrosine kinase with immunoglobulin and EGF repeats.
# Sequence of Tie-2 (Q02763 23-1124): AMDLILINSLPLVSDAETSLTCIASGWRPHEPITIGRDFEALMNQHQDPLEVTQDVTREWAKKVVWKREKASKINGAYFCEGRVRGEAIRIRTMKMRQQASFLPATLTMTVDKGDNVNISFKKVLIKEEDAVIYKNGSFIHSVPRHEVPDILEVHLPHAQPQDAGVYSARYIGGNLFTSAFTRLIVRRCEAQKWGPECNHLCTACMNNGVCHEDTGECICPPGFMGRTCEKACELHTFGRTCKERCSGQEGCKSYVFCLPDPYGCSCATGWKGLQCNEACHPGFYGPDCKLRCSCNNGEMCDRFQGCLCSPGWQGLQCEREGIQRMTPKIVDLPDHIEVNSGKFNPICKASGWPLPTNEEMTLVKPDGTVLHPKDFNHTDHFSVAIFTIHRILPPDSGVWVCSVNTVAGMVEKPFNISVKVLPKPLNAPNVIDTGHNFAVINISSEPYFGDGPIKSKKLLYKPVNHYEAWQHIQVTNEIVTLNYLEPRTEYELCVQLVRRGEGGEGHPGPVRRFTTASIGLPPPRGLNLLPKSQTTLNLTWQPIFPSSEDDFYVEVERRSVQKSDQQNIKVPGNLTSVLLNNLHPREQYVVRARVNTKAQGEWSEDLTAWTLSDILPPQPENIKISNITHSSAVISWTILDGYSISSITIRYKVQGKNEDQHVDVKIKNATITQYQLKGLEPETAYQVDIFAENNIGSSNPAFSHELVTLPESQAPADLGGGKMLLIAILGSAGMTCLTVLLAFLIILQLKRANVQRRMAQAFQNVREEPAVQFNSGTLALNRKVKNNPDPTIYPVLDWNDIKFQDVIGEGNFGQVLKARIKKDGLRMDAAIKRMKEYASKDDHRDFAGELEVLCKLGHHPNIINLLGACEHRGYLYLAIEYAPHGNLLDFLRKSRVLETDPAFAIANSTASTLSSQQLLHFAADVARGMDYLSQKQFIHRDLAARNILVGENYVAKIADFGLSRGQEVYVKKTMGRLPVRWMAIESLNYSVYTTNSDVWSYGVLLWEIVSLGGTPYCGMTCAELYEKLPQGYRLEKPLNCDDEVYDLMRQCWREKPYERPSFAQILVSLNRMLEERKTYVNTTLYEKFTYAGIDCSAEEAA
row,IC50 [nM],Structure (SMILES)
1,< 50,"COC(=O)Nc1cc(COc2cccnc2N2CCN(C(=O)Nc3cccc(Br)c3)CC2)ccn1 [Example 164, methyl [4-({[2-(4-{[(3-bromophenyl)amino]carbonyl}piperazin-1-yl)pyridin-3-yl]oxy}methyl)pyridin-2-yl]carbamate]"
2,50 to 1000,"O=C(Nc1nccc(COc2nsnc2N2CCN(C(=O)Nc3cc(C(F)(F)F)cc(C(F)(F)F)c3)CC2)n1)OCCN1CCCCC1 [Example 163, 2-piperidin-1-ylethyl {4-[({4-[4-({[3,5-bis(trifluoromethyl)phenyl]amino}carbonyl)piperazin-1-yl]-1,2,5-thiadiazol-3-yl}oxy)methyl]pyrimidin-2-yl}carbamate]"
3,< 50,"CCc1cccc(NC(=O)N2CCN(c3ncccc3OCc3ccnc(N)n3)CC2)c1 [Example 144, 4-(3-{[(2-aminopyrimidin-4-yl)methyl]oxy}pyridin-2-yl)-N-(3-ethylphenyl)piperazine-1-carboxamide]"
4,< 50,"CCc1ccc(F)c(NC(=O)N2CCN(c3ccccc3OCc3ccnc(N)n3)CC2)c1 [Example 278, 4-(2-{[(2-aminopyrimidin-4-yl)methyl]oxy}phenyl)-N-(5-ethyl-2-fluorophenyl)piperazine-1-carboxamide]"
5,≥ 10000,Cc1cc(COc2nsnc2N2CCN(C(=O)Nc3cc(C(F)(F)F)cc(C(F)(F)F)c3)CC2)c2ccccc2n1 [Example 10]
6,≥ 10000,"CNc1cc(COc2nsnc2N2CCNCC2)ccn1 [Example 109, N-methyl-4-{[(4-piperazin-1-yl-1,2,5-thiadiazol-3-yl)oxy]methyl}pyridin-2-amine]"
7,< 50,"CCc1cc(Br)cc(NC(=O)N2CCN(c3nccnc3OCc3ccnc(N)n3)CC2)c1 [Example 236, 4-(3-{[(2-aminopyrimidin-4-yl)methyl]oxy}pyrazin-2-yl)-N-(3-bromo-5-ethylphenyl)piperazine-1-carboxamide]"
8,< 50,"Nc1nccc(COc2nccnc2N2CCN(C(=O)Nc3cccc(C(F)(F)F)c3)CC2)n1 [Example 229, 4-(3-{[(2-aminopyrimidin-4-yl)methyl]oxy}pyrazin-2-yl)-N-[3-(trifluoromethyl)phenyl]piperazine-1-carboxamide]"
9,1000 to 10000,"O=C(Nc1cc(C(F)(F)F)cc(C(F)(F)F)c1)N1CCN(c2nsnc2OCCCc2cccnc2)CC1 [Example 29, N-[3,5-bis(trifluoromethyl)phenyl]-4-{4-[(3-pyridin-3-ylpropyl)oxy]-1,2,5-thiadiazol-3-yl}piperazine-1-carboxamide]"
10,50 to 1000,"O=C(Nc1cc(C(F)(F)F)cc(C(F)(F)F)c1)N1CCCN(c2nccnc2OCc2ccncc2)CC1 [Example 75, N-[3,5-bis(trifluoromethyl)phenyl]-4-{3-[(pyridin-4-ylmethyl)oxy]pyrazin-2-yl}-1,4-diazepane-1-carboxamide]"
11,50 to 1000,Cc1cc(C)cc(NC(=O)N2CCN(c3nsnc3OCc3ccncc3)CC2)c1 [Example 8]
12,50 to 1000,"O=C(Nc1cccc(C(F)(F)F)c1)N1CCN(c2ccccc2OCc2ccncc2)CC1 [Example 73, 4-{2-[(pyridin-4-ylmethyl)oxy]phenyl}-N-[3-(trifluoromethyl)phenyl]piperazine-1-carboxamide]"
13,< 50,"Nc1nccc(COc2cccnc2N2CCN(C(=O)Nc3cccc(OC(F)(F)F)c3)CC2)n1 [Example 168, 4-(3-{[(2-aminopyrimidin-4-yl)methyl]oxy}pyridin-2-yl)-N-{3-[(trifluoromethyl)oxy]phenyl}piperazine-1-carboxamide]"
14,50 to 1000,"O=C(Nc1cccc(C(F)(F)F)c1)N1CCCN(c2nccnc2OCc2ccncc2)CC1 [Example 77, 4-{3-[(pyridin-4-ylmethyl)oxy]pyrazin-2-yl}-N-[3-(trifluoromethyl)phenyl]-1,4-diazepane-1-carboxamide]"
15,< 50,"CCc1ccc(F)c(NC(=O)N2CCN(c3ncccc3OCc3ccnc(NC(=O)CN4CCN(C)CC4)c3)CC2)c1 [Example 199, N-(5-ethyl-2-fluorophenyl)-4-(3-{[(2-{[(4-methylpiperazin-1-yl)acetyl]amino}pyridin-4-yl)methyl]oxy}pyridin-2-yl)piperazine-1-carboxamide]"
16,< 50,"CCc1cc(Br)cc(NC(=O)N2CCN(c3nsnc3OCc3ccnc(N)n3)CC2)c1 [Example 238, 4-(4-{[(2-aminopyrimidin-4-yl)methyl]oxy}-1,2,5-thiadiazol-3-yl)-N-(3-bromo-5-ethylphenyl)piperazine-1-carboxamide]"

row,IC50 [nM],Structure (SMILES)
1,< 50,"Nc1nccc(COc2ccccc2N2CCN(C(=O)Nc3cc(C(F)(F)F)cc(C(F)(F)F)c3)CC2)n1 [Example 255, 4-(2-{[(2-aminopyrimidin-4-yl)methyl]oxy}phenyl)-N-[3,5-bis(trifluoromethyl)phenyl]piperazine-1-carboxamide]"
2,50 to 1000,"CN1CCN(CC(=O)Nc2cc(COc3cccnc3N3CCN(C(=O)Nc4cc(C(F)(F)F)ccc4F)CC3)ccn2)CC1 [Example 211, N-[2-fluoro-5-(trifluoromethyl)phenyl]-4-(3-{[(2-{[(4-methylpiperazin-1-yl)acetyl]amino}pyridin-4-yl)methyl]oxy}pyridin-2-yl)piperazine-1-carboxamide]"
3,< 50,"CCc1cc(F)cc(NC(=O)N2CCN(c3ncccc3OCc3ccnc(N)n3)CC2)c1 [Example 247, 4-(3-{[(2-aminopyrimidin-4-yl)methyl]oxy}pyridin-2-yl)-N-(3-ethyl-5-fluorophenyl)piperazine-1-carboxamide]"
4,< 50,"CC(=O)Nc1nccc(COc2nsnc2N2CCN(C(=O)Nc3cc(C(F)(F)F)cc(C(F)(F)F)c3)CC2)n1 [Example 124, 4-[4-({[2-(acetylamino)pyrimidin-4-yl]methyl}oxy)-1,2,5-thiadiazol-3-yl]-N-[3,5-bis(trifluoromethyl)phenyl]piperazine-1-carboxamide]"
5,50 to 1000,"O=C(Nc1cccc(C(F)(F)F)c1)C1CCN(c2nsnc2OCc2ccncc2)CC1 [Example 37, 1-{4-[(pyridin-4-ylmethyl)oxy]-1,2,5-thiadiazol-3-yl}-N-[3-(trifluoromethyl)phenyl]piperidine-4-carboxamide]"
6,1000 to 10000,"Nc1nccc(COc2ccccc2N2CCN(C(=O)Nc3ccccc3)CC2)n1 [Example 270, 4-(2-{[(2-aminopyrimidin-4-yl)methyl]oxy}phenyl)-N-phenylpiperazine-1-carboxamide]"
7,< 50,"O=C(CN1CCCC1)Nc1cc(COc2nsnc2N2CCN(C(=O)Nc3cc(C(F)(F)F)cc(C(F)(F)F)c3)CC2)ccn1 [Example 154, N-[3,5-bis(trifluoromethyl)phenyl]-4-{4-[({2-[(pyrrolidin-1-ylacetyl)amino]pyridin-4-yl}methyl)oxy]-1,2,5-thiadiazol-3-yl}piperazine-1-carboxamide]"
8,50 to 1000,"N#Cc1nc(OCc2ccncc2)c(N2CCN(C(=O)Nc3cc(C(F)(F)F)cc(C(F)(F)F)c3)CC2)nc1C#N [Example 90, N-[3,5-bis(trifluoromethyl)phenyl]-4-{5,6-dicyano-3-[(pyridin-4-ylmethyl)oxy]pyrazin-2-yl}piperazine-1-carboxamide]"
9,< 50,"CCc1cccc(NC(=O)N2CCN(c3nccnc3OCc3ccncc3)CC2)c1 [Example 92, N-(3-ethylphenyl)-4-{3-[(pyridin-4-ylmethyl)oxy]pyrazin-2-yl}piperazine-1-carboxamide]"
10,≥ 10000,"O=C(O)c1cc(COc2nsnc2N2CCN(C(=O)Nc3cc(C(F)(F)F)cc(C(F)(F)F)c3)CC2)ccn1 [Example 139, 4-[({4-[4-({[3,5-bis(trifluoromethyl)phenyl]amino}carbonyl)piperazin-1-yl]-1,2,5-thiadiazol-3-yl}oxy)methyl]pyridine-2-carboxylic acid]"
11,50 to 1000,"O=C(Nc1cc(C(F)(F)F)cc(C(F)(F)F)c1)N1CCN(c2nccnc2CCc2ccncc2)CC1 [Example 96, N-[3,5-bis(trifluoromethyl)phenyl]-4-[3-(2-pyridin-4-ylethyl)pyrazin-2-yl]piperazine-1-carboxamide]"
12,50 to 1000,"O=C(Nc1nccc(COc2nsnc2N2CCN(C(=O)Nc3cc(C(F)(F)F)cc(C(F)(F)F)c3)CC2)n1)OCCN1CCCC1 [Example 162, 2-pyrrolidin-1-ylethyl {4-[({4-[4-({[3,5-bis(trifluoromethyl)phenyl]amino}carbonyl)piperazin-1-yl]-1,2,5-thiadiazol-3-yl}oxy)methyl]pyrimidin-2-yl}carbamate]"
13,50 to 1000,"CC1CN(c2nccnc2OCc2ccncc2)CC(C)N1C(=O)Nc1cc(C(F)(F)F)cc(C(F)(F)F)c1 (stereo not shown) [Example 64, N-[3,5-bis(trifluoromethyl)phenyl]-2,6-dimethyl-4-{3-[(pyridin-4-ylmethyl)oxy]pyrazin-2-yl}piperazine-1-carboxamide]"
14,< 50,"CC(Oc1cccnc1N1CCN(C(=O)Nc2cc(C(F)(F)F)cc(C(F)(F)F)c2)CC1)c1ccnc(N)n1 (stereo not shown) [Example 216, 4-(3-{[1-(2-aminopyrimidin-4-yl)ethyl]oxy}pyridin-2-yl)-N-[3,5-bis(trifluoromethyl)phenyl]piperazine-1-carboxamide]"
15,≥ 10000,"CC(C)CNC(=O)N1CCN(c2ncccc2OCc2ccnc(N)n2)CC1 [Example 220, 4-(3-{[(2-aminopyrimidin-4-yl)methyl]oxy}pyridin-2-yl)-N-(2-methylpropyl)piperazine-1-carboxamide]"
